According to a melting point compilation (Tetko et al.; mined from patent text by program, amines drawn as free bases though some values may be those of a salt):

SMILES	melting point
CCOC(=O)C1Cc2cc3c(-c4ccccc4F)noc3cc2O1 (stereo not drawn)	115 to 116 °C
Cc1nc2cccc(Cl)c2n1-c1ccccc1	103 to 105 °C
OCCCNCc1cc(C(F)(F)F)cc(C(F)(F)F)c1	57 to 58 °C
Nc1c([N+](=O)[O-])cc(Br)c2c1CN(Cc1ccccc1)CC2	150 to 152 °C
Cc1ccn2c(-c3ccnc(-c4ccc(CN5CCOCC5)cc4)c3)c(-c3cccc(C)n3)nc2c1	188 °C
Cc1c(Cl)cc(NC(=O)CCl)c(O)c1Cl	149 °C
CCCCCCOc1c(OC)cc(N)c2nccc(C)c12	69 to 71 °C
O=C(O)c1cn(C2CC2)c2c(F)c(N3CCC(n4nncc4C(=O)O)C3)c(F)cc2c1=O (stereo not drawn)	214 °C
NNc1nncc(-c2ccc(F)cc2)n1	228 to 231 °C
Nc1cccc(-c2ccc(CCN3CCN(c4nnnn4-c4ccc(F)cc4)CC3)cc2)n1	185 to 187 °C
COc1ccc2snnc2c1S(=O)(=O)Cl	131 to 134 °C
COC(=O)c1cc(NC(=O)Nc2ccc([N+](=O)[O-])cc2)cc(C(=O)OC)c1	193 to 195 °C
CCCCCNC(=S)NC(Cc1ccc(OC)cc1)=Nc1ccccc1	125 to 126 °C
O=C(NCCc1ccc(O)c(O)c1)C12CC3CC(CC(C3)C1)C2	198 to 200 °C
CC(C)(C)OC(=O)N1CCOc2ccc(Br)cc2S1(=O)=O	119 °C
CCN(CC)c1c([N+](=O)[O-])cc(C(F)(F)F)c(Cl)c1[N+](=O)[O-]	35 to 36 °C
CC(Cl)C(=O)Oc1coccc1=S (stereo not drawn)	118 to 119 °C
O=C(CCl)Nc1ccc2c(c1NC(=O)c1ccc(C(F)(F)F)cc1)C(=O)c1ccccc1C2=O	203 to 204 °C
CC1N=C(c2ccccc2Cl)c2c(ccc(NC(=O)NC3CCC(O)CC3)c2Br)N(C)C1=O (stereo not drawn)	226 to 227 °C
COC(=O)c1nc(-c2ccc(Cl)c(OC)c2F)nc(N)c1C(C)F (stereo not drawn)	150 to 152 °C
CC(=O)N1CCc2cc(C(=O)CCCN3CCC(c4noc5cc(F)ccc45)CC3)sc2C1	145 to 147 °C
O=C(COc1ccccc1)N[C@@H](Cc1ccc(OCCc2coc(-c3ccccc3)n2)cc1)C(=O)O	94 to 97 °C
COc1ccc(-c2nc(C)c(NC(=O)c3nnn[nH]3)s2)cc1	205 to 207 °C
CCCCCCCCCCCCCCCCCCN(OCCCC)C(CCCCCCCCCCCCCCCCC)P(=O)(OCCCC)OCCCC (stereo not drawn)	38 to 40 °C
Cc1cc(-c2cc(C(F)(F)F)n3ncc(C(=O)Nc4cccc(S(=O)(=O)NC5CC5)c4)c3n2)ccc1C(F)(F)F	201 °C
Cc1sc2c(c1C)C(c1ccc(Cl)cc1)=N[C@@H](CC(=O)Nc1ccc(O)cc1)c1nnc(C)n1-2	215 to 220 °C
CCc1cccc2nc(N[C@@H](CC(C)C)C(=O)OC)oc(=O)c12	74 to 76 °C
COc1ccc(-c2ccncc2OC2SCC(OC(C)=O)C(OC(C)=O)C2OC(C)=O)cc1 (stereo not drawn)	193 °C

SMILES	melting point
CC(=O)NCCn1cccc1	59 to 60 °C
CCCCCCCCCCCCCCCC1=CC=CC(=O)C12CO2 (stereo not drawn)	45 to 47 °C
O=C(O)c1ccc(NCCCCOc2ccccc2)cc1	153 to 155 °C
COC(=O)CCCN(C(=O)C(C)N(C(C)=O)c1ccc(OC)cc1)c1ccc(OC)cc1 (stereo not drawn)	111 to 113 °C
CC(C)N(Cc1nc(-c2ncn3c2CN(C)C(=O)c2c-3ccc(F)c2Cl)no1)C(C)C	153 to 156 °C
CCC(=O)NC1c2cc3nonc3cc2OC(C)(C)C1O (stereo not drawn)	203 to 205 °C
CC(C)(C)n1nn[nH]c1=S	92 to 94 °C
COc1cc2c(cc1C#N)C1(CO2)C(=O)Nc2ccccc21 (stereo not drawn)	185 to 186 °C
COc1ccc(C2=CCN(Cc3n[nH]c4c(Cl)cccc34)CC2)cc1	201 to 203 °C
CCOP(=O)(Cc1ccc(C(N)=O)cc1)OCC	177 to 178 °C
CC(=O)N1CCC(CCC(=O)c2ccc3c4c2CCCC4CN3C(C)=O)CC1 (stereo not drawn)	130 to 132 °C
COc1ccc(-n2nc(Sc3cc(Cl)cc(Cl)c3)c(C)c(C#N)c2=O)cc1	195 to 197 °C
O=C(NCCCCN1CCC(c2c[nH]c3ccccc23)CC1)c1ccc(-c2ccc(C(F)(F)F)cc2)c(CO)c1	177 °C
CCOCC1=NNC(=O)N(N=Cc2cccnc2)C1	156 to 158 °C
OCc1cccc2cc(Br)ccc12	72 to 75 °C
Cc1ccccc1-c1c(C(=O)O)c(=O)n(C)c2ccc(Cl)cc12	202 to 203 °C
COc1ccc(C2=NN(Cc3ccccc3)C(=O)[C@H]3CCCC[C@@H]23)cc1OC (relative stereo)	86 to 88 °C
CC(=O)N(C1=C(NC2CC2)C(=O)c2c(cnn2C)C1=O)C1CC1	75 to 78 °C
O=C1Cc2cc([N+](=O)[O-])c(NC(=O)c3ccncc3)cc2N1	> 300 °C
CCCC1=C(C(=O)OCC)C(c2cccc3ccsc23)c2c[nH]nc2N1 (stereo not drawn)	166 °C
O=S(=O)(c1ccc(Cl)cc1)C(CCO)c1cc(F)ccc1F (stereo not drawn)	147 to 149 °C
CCOC(=O)C1CSC(c2cc3cccc(NS(=O)(=O)c4cccs4)c3[nH]2)=N1 (stereo not drawn)	156 to 157 °C
Cc1ccc2c(N3CCc4ccc(Cl)cc43)ncnc2c1	265 °C
c1ccc(-c2ccc3c4c([nH]c3c2)CCNCC4)cc1	220 to 222 °C
CC1Cc2ccc(O)cc2C1(C)C (stereo not drawn)	66 to 67 °C
COc1ccc2sc(Nc3ccc(OCCN4CCCC4)cc3)nc2c1	167 to 168 °C
CC(C)c1ccc(C(=O)NCCCCN2CCN(C(c3ccccc3)c3ccccc3)CC2)c(O)n1	184 to 186 °C

The remaining lines, values ahead:

melting point	SMILES
221 to 223 °C	Cc1ccc(C(=O)n2nc(Nc3ccc(O)cc3)nc2N)cc1
173 to 175 °C	O=C(SCCC(=O)N1c2ccccc2CC1C(=O)O)c1ccccc1 (stereo not drawn)
99 to 101 °C	O=C(O)COc1cccc(-c2ccc(Cl)c(C(=O)NCC34CC5CC(CC(C5)C3)C4)c2)c1
229 °C	CC(C)(C)c1cc(-c2n[nH]c(=O)s2)cc(C(C)(C)C)c1O
96 to 97 °C	CN(C)CCN(C(=O)c1cccc([N+](=O)[O-])c1Br)c1ccnc2cc3c(cc12)OCO3
111 to 115 °C	O=C(O)C1CCOc2ccc(F)cc21 (stereo not drawn)
69 °C	CC1(C)CC(Cl)C(=Cc2ccc(F)cc2)C1=O (stereo not drawn)
226 °C	Nc1c(Cl)cc(C(=O)O)c2c1CCCO2
144 to 145 °C	COc1ccc(CN(C)C2CCN(c3ccc([N+](=O)[O-])cc3)CC2)cc1
113 to 115 °C	CS(=O)(=O)c1ccc(C=Cc2ccc(NCCCCCCO)cc2)cc1
157 to 159 °C	CCCc1nn(C)c2c(=O)[nH]c(-c3cc(Br)ccc3OCC)nc12
166 to 170 °C	O=C1OCCN1C(=O)c1ccccc1
95 to 97 °C	Cc1ccc(Oc2ccc(Br)cc2O)c(O)c1
146 to 156 °C	Cc1cc(C#N)nc(-c2ccc([N+](=O)[O-])cc2)c1
110 to 111 °C	Cn1nc(Nc2cc(-c3ccc(F)c(-c4c(C(N)=O)sc5c4C(O)C(C)(C)C5)c3)nn(C)c2=O)cc1CN1CCC1 (stereo not drawn)
201 to 202 °C	CCCCCN(C(=O)Nc1ccc2c(c1)C(C)(C)CCC2(C)C)c1ccc(C(=O)O)cc1
46 to 48 °C	COc1ccc(Nc2ccc(F)cc2)cc1
269 to 271 °C	Cc1ccccc1C(=O)Nc1ccc(C(=O)N2CCCC(NC(=O)Nc3ccccc3)c3ccccc32)cc1 (stereo not drawn)
162 to 165 °C	Cc1cc(O)c(Oc2ccccc2C#N)cc1N1CCOCC1
120 to 121 °C	CCOC(=O)C(C#N)=Cc1ccc(OCCc2nc(-c3ccccc3Cl)oc2C)cc1
209 to 212 °C	O=c1cc(-c2ccccc2)cc(-c2ccccc2)[nH]1
230 to 231 °C	Cc1cn(C)c(C(=O)NS(=O)(=O)c2ccccc2Cl)n1
170 to 172 °C	O=Cc1cc(C=O)c(C#Cc2ccccc2)cc1C#Cc1ccccc1
82 to 85 °C	COC(=O)c1cc(O)c([N+](=O)[O-])cc1C(=O)OC

melting point	SMILES
191 to 193 °C	CN(C)CCOc1ccc2sc(C(=O)Nc3ccccc3N)cc2c1
142 °C	CCC1N=C(C(N)=O)ON1S(=O)(=O)c1ccccc1Cl (stereo not drawn)
68 to 69 °C	Cc1nnc(CNc2c(C)cccc2C)s1
134 to 135 °C	Cc1nc(Cl)c(C#N)cc1-c1ccccc1
105 to 108 °C	COc1ccc(C=C=C(C)C(=O)O)cc1
174 to 175 °C	NCCNC(=O)CCCOc1ccc(C2=NNC(=O)CC2)cc1
270 to 273 °C	COc1ccc(C(=O)Nc2ccc(C(=O)NC(C)(C)C)cc2)cc1C12CC3CC(CC(C3)C1)C2
280 to 282 °C	O=C(O)CCc1c(C(=O)O)[nH]c2cc(I)cc(I)c12
86 °C	c1ccc2c(c1)Cc1sccc1CN2
110 to 111 °C	CCOC(=O)C(=O)/C=C/c1ccc(OCc2nc(-c3ccccc3)oc2C)cc1
215 °C	CNC(=S)N1CCc2[nH]cnc2C1c1cccs1 (stereo not drawn)
124 to 126 °C	CCOC(=O)C(=O)c1cccc(NC=O)n1
86 to 89 °C	CCCCCS(=O)(=O)NC(=O)OCc1ccc(OS(=O)(=O)CCC)cc1Oc1ncc(C(F)(F)F)cc1Cl
96 to 97 °C	CCOC(=O)CN1c2ccccc2Oc2ccccc21
163 to 164 °C	CCCCNC(=O)NS(=O)(=O)CCc1c(C)nn(C)c1-n1ccc2cc(C(F)(F)F)cnc21
263 to 265 °C	O=c1cc(-c2ccncc2)cc[nH]1
205 to 210 °C	c1ccc2c(c1)cc1cnc(Nc3ccc(N4CCOCC4)cc3)nn12
128 to 130 °C	C#CC(C)(C)N=C(NC#N)SC
109 to 111 °C	CCOCc1nc2c(N)nc3ccccc3c2n1CCCON=C(C)C
246 to 247 °C	CCC(C)(C)c1cc(-c2ccc(F)c(C=C3SC(N4CCOCC4)=NC3=O)c2)ccc1O
73 to 76 °C	BrCCCCOc1ccc(OCCCBr)cc1
104 to 108 °C	CCN(CC)c1ccc(/C=C/c2cc(/C=C/c3ccc4cc[nH]c4c3)[nH]n2)c(OC)c1
82 to 83 °C	COC(=O)NNCc1ccc(Cl)cc1Cl
143 to 144 °C	COc1cc(OC)c2c(=O)c(OCCOc3ccc(C(C)=O)cc3)c(-c3ccc(OC)c(OC)c3)oc2c1
